Measured values as given in US9468632B2, “Methods and compositions for targeting cancer stem cells” (The Regents of the University of Michigan, priority 2012, dated 2016).

Experiments:
all the ALDH1A isoforms = experiment: In vitro enzymatic inhibition assays, text summary for ALDH1A isoforms; format: biochemical
intracellular calcium = experiment: Fluorescent analysis of intra-cellular calcium; format: cell-based
Procedure: Programmed cell necrosis is known to be linked with decreases in cellular ATP and an increase in intracellular calcium. […] Furthermore, reduction in CD 133 positive cells with UM 673 treatment could be partially abrogated by the calcium scavenging compound BAPTA (FIG. 6E). As program cell necrosis is known to be activated via the RIP kinases, the impact of the RIP kinase inhibitor necrostatin was evaluated.

[1] = system: primary human tumor xenografts; experiment: Primary human tumor xenografts from chemotherapy refractory ovarian cancer; format: in vivo, mice
Excerpt: In order to confirm in vivo activity against primary ovarian cancers, primary human tumor xenografts were generated from a patient with chemotherapy refractory ovarian cancer. Xenografts were allowed to grow until they reached ˜500 mm^3, and then treatment with either vehicle, cisplatin or cisplatin and UM 673 was initiated. […] After discontinuation of therapy, tumor regrowth was observed after approximately 4 weeks (FIG. 5D).

[2] = system: cellular oxygen consumption; experiment: SeaHorse cellular metabolism studies; format: cell-based
Procedure: UCP1 and UCP3 proteins play a critical role in cellular metabolism. The impact of UM673 on cellular metabolism was evaluated.

[3] = system: Annexin-V staining (apoptosis); experiment: PI/Annexin-V FACS analysis; format: cell-based
Procedure: PI/Annexin-V FACS analysis of UM673 treated cells was performed to determine if cells were undergoing apoptosis.

[4] = system: ovarian cancer cell lines including A2780, SKOV3, and OvCAR8; experiment: MTT assay, ovarian cancer cell lines; format: cell-based, human; details: 72 hours, range over cell lines
Procedure: (§1) TD50 ranged from 12-50 uM.

[5] = system: in vitro treated, PI-/Annexin-FACS isolated live cells; experiment: Tumor initiation capacity of in vitro treated live cells injected into mice; format: in vivo
Procedure: An important functional aspect of a cancer stem cell is the ability to initiate tumors with limited cell numbers. In order to determine if UM673 could impact tumor initiation, cells were treated in vitro with a single dose of UM673 alone or in combination with cisplatin. Cells were allowed to recover for three days and then PI(−)/Annexin(−) live cells were faxed isolated and injected into mice. 200, 1000, or 5000 cells from each treatment group (n=4-10/group) were injected.

OVCAR8 cells = experiment: Tumor sphere forming assay, OVCAR8; format: cell-based, human
Procedure: (§2) Tumor associated ascites cells were isolated by centrifugation and treated with ACK lysis buffer (Fischer Scientific). 5000 cells were placed in each well of the 6-well ultra-low adherence plates (Corning, Acton, Mass., USA) with 3 ml of supplemented MEBM (Lonza). After 24 hours, cells were treated with either media alone or UM #673. Media was added every 3-4 days, and all tumor sphere counts were done at 2 weeks. Alternatively, sphere assays were also performed with cancer cell lines A2780 and OVCAR8. Cells in culture were trypsinized and 2000 cells were either directly placed or FACS isolated for CD133+ and CD133− cells before plating in wells of ultra-low adherence plates. Images of spheres were photographed using the Olympus Microsuite Biological suite Software.
(§3) In order to further characterize UM #673 activity targeting OvCSC, a functional CSC assay was performed. Tumor sphere forming assays were performed with both FACS isolated CD133+A2780 cells and OVCAR8 cells (a cell line with >90% CD133 expression). […] This assay was repeated using primary human ovarian cancer associated ascites cell from three patients. Treatment with 673 was associated with an average of 7.3 fold (range 4-50) reduction in the number of spheres formed (FIG. 4A).

[6] = system: isolated CD133+ cancer stem cells initiated tumors; experiment: CD133+ cancer stem cell initiated tumors, tumor growth; format: in vivo, mice; details: single agent
Procedure: (§4) 6-8 week old nude female mice were purchased from Charles River Laboratories. All xenograft experiments were performed with approval of the University Committee on Use and Care of Animals of the University of Michigan. To generate tumors, 7.5×10^4 unsorted A2780 cells or 7500 CD133+ sorted A2780 cells were combined with 100 μl of DPBS and 100 μl of Matrigel (BD Biosciences), and then implanted subcutaneously into bilateral axillae of each mouse. 3 days after inoculation with tumors, mice were given an intra-peritoneal injection of (1) control DMSO 40 μl, (2) Cisplatin 250 μg/ml, (3) UM #673 10 μM, or (4) Cisplatin plus UM #673 (n=9 mice per treatment group). Tumor growth was measured using calipers, and tumor volume was calculated based on the modified ellipsoid formula (L×W×W/2), where L is the length and W is the width of the tumor. The mice were euthanized when tumors reached 1.5 to 2 cm^3 and animal safety euthanasia guidelines were met. Intraperitoneal tumors were generated using 5×10^6 OVCAR8 in […] of PBS and injected I.P. 3 days after inoculation, mice were given intra-peritoneal injection of Cisplatin or Cisplatin plus UM #673.
The impact of UM673 as a single agent was evaluated. NOD/SCID mice were inoculated with 1×10^5 unsorted A2780 cells and treatment was initiated three days after tumor inoculation with either vehicle control or UM #673. […]

[7] = system: normal human ovarian surface epithelial cells; details: 72 h
Procedure: (§7) 7500 of HOSE, MSC, and OVCAR8 cells were plated on a 96-well plate and rested for 24 hours. They were then treated with incremental doses of 673 for 72 hours. They were then analyzed according to the Vybrant® MTT Cell Proliferation Assay Kit (Invitrogen).
(§8) The toxicity of these compounds versus normal human ovarian surface epithelial cells and healthy adipose derived mesenchymal stem cells was assayed.

mitochondrial metabolism = experiment: LCMS of cellular metabolites; format: cell-based
A2770 cells = experiment: FACS analysis of CD133 and ALDH expressing cells; format: cell-based
UCP1 and UCP3 = experiment: qRT-PCR of necrosis associated genes; format: cell-based
Procedure: (§5) ALDH1A isoforms are the primary members of the ‘retinaldehyde’ subgroup of aldehyde dehydrogenases. Retinaldehydes play a primary role in the biosynthesis of retinoic acid and thereby regulate retinoic acid mediated transcription. Retinoic acid transcription changes in cells treated with UM673 were assayed. […] 80× induction of the mitochondrial uncoupling proteins UCP1 and UCP3 was observed (FIG. 7B).

ALDH+ cells = experiment: FACS isolated single cells in microfluidic culture, cell death; format: cell-based
Procedure: (§6) In order to determine if the loss of CD133 or ALDH expressing cells is due to downregulation/loss of enzyme function or due to cell death, FACS isolated CD133+ or ALDH+ cells were treated as single cells in microfluidic culture. 673 treatment was associated with the death of ˜93% of CD133+ cells and 65% death of ALDH+ cells (FIG. 1B).

CD133+ cells = experiment: as above; format: cell-based
Procedure: as §6

[8] = system: FACS isolated CD133+A2780 cells; experiment: Tumor sphere forming assay, CD133+ A2780; format: cell-based, human; details: single treatment with 10 μM
Procedure: as §2, §3

[9] = system: pancreatic cancer cell lines and breast cancer cell lines (ASPC, PANC1, MCF7); experiment: MTT toxicity screen, pancreatic and breast cancer cell lines; format: cell-based
Procedure: A. MTT assay of cytotoxicity of indicated compounds at increasing doses 72 hours after treatment of ovarian cancer cell. B. MTT assay for pancreatic (ASPC and PANC1) and breast cancer (MCF7) cell lines. C. MTT assays of 673 for normal cells (HOSE and MSC) and ovarian cancer (OvCAR8) controls.
as §1

A2780 = experiment: MTT assay, A2780 viability; format: cell-based, human
Procedure: as §1

[10] = system: healthy adipose derived mesenchymal stem cells; details: human, 72 h
Procedure: as §7, §8

[11] = system: primary human ovarian cancer associated ascites cell; experiment: Tumor sphere forming assay, primary ascites cells; format: cell-based; details: three patients, range 4-50
Procedure: as §2, §3

Oct4, and Sox2 = experiment: qRT-PCR of stem cell genes; format: cell-based
Procedure: as §5

[12] = system: A2780 tumor cell xenografts; experiment: A2780 tumor cell xenografts, tumor growth; format: in vivo, mice; details: unsorted A2780 cells, treatment from day 3
Procedure: as §4
The impact of UM673 as a single agent was evaluated. NOD/SCID mice were inoculated with 1×10^5 unsorted A2780 cells and treatment was initiated three days after tumor inoculation with either vehicle control or UM #673. […] This is consistent with other studies of CSC targeting agents.
The experiments were repeated in combination with cisplatin. In addition, xenografts from both whole cell line and FACS isolated CD133+ cells were treated.

## Cc1cc(N2Cc3ccccc3C2)ccc1C=O [UM673]
All the ALDH1A isoforms
  IC50: < 230 nM
Intracellular calcium
  increase in intracellular calcium: fourfold increase
[1]; mouse, in vivo
  time to tumor regrowth after discontinuation of therapy: approximately 4 weeks
[1]; treatment started at ˜500 mm^3
  tumor growth: prevented tumor regrowth
[2]
  cellular oxygen consumption: slow and steady decline
[3]
  Annexin-V staining: not associated with an increase in Annexin-V staining
[4]
  TD50: 12 to 50 µM
[5]; 200 cells injected
  tumor initiation (tumors/injections): 2/4
[5]; 1000 cells injected
  tumor initiation (tumors/injections): 4/4
[5]; 5000 cells injected
  tumor initiation (tumors/injections): 4/5
[5]; compared to untreated controls
  effect on tumor initiation capacity: neither cisplatin or UM673 affected tumor initiation
OVCAR8 cells
  decrease in sphere formation: 5.6 fold
  reduction total cell numbers: 3 fold
[6]
  tumor growth: Greatest activity
[7]
  TD50: ~105 µM
Mitochondrial metabolism
  levels of citrate: marked decrease
A2770 cells
  loss of ALDH+ and CD133+ cells: reductions in not only ALDH+ cells, but also CD133+ cells
UCP1 and UCP3
  induction of the mitochondrial uncoupling proteins UCP1 and UCP3: 80 ×
ALDH+ cells
  death of ALDH+ cells: 65%
CD133+ cells
  death of CD133+ cells: ~93%
[8]
  decrease in sphere number: 2.6 fold
  reduction in total cell number: ~8 fold
[9]
  cytotoxicity versus bulk populations: variable modest cytotoxicity
A2780
  lowest dose with measurable effects on A2780 viability: 2.5 µM
[10]
  TD50: ~105 µM
[11]
  average reduction in the number of spheres formed: 7.3 fold
Oct4, and Sox2
  expression of stem cell factors Oct4 and Sox2: down regulated
[12]
  tumor growth: statistically significant reduction in tumor growth
[12]; listed as UM 673
  tumor growth: modest restrictions in tumor growth
